Like-named read-outs stand apart in the source and are kept apart here.
Assays:
[1] = tested on: H3K18Ac in HB-CLS-2 cells; experiment: H3K18AC in-cell western (ICW) assay; assay type: cell-based; conditions: read-out: CREBBP ICW IC50
How it was run: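 In-cell western: after methanol fixation, blocking, overnight 4° C anti-H3K18Ac staining, then 800CW secondary plus DRAQ5 for DNA content, integrated intensities were scanned at 800 and 700 nm. Before this, compound exposure lasted 2 hr at 37° C in HB-CLS-2 cells plated 16–24 hours earlier. Values expressed as IC50 (μM).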

647V cells = experiment: High throughput proliferation (HTP) assay; assay type: cell-based; conditions: read-out: CREBBP HTP IC50
How it was run: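 Proliferation IC50 (micromolar) derived from a 7-day CellTiter-Glo viable-cell readout in 647V cells exposed, in triplicate, to rising compound concentrations; cells grown in DMEM plus 15% heat-inactivated FBS at 37° C under 5% CO2.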

CREBBP (1084-1701) = biological target: T1, CREBBP (1084-1701) (Homo sapiens, UniProt Q92793); experiment: Biochemical assay for CREBBP (1084-1701), SAMDI; conditions: read-out: CREBBP Biochemistry IC50
T1 construct: measured in the following biochemical assay using CREBBP (1084-1701); purchased
T1 sequence (Q92793 1084-1701): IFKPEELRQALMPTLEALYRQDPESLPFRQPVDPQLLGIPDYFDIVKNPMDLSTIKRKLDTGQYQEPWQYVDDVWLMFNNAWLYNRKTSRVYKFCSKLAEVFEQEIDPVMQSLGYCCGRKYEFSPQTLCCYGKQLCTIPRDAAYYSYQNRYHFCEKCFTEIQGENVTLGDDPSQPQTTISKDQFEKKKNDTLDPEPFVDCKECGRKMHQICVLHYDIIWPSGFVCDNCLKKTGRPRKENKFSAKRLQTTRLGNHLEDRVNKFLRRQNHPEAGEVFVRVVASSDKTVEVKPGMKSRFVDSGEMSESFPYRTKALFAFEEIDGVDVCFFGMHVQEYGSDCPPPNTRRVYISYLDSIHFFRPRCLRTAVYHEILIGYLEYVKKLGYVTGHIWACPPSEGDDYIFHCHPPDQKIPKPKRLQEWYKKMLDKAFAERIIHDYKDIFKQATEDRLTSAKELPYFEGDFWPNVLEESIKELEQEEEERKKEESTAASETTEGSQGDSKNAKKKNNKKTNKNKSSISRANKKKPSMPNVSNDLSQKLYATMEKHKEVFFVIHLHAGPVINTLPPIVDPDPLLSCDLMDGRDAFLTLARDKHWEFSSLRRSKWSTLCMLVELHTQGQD
How it was run: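 Acetyltransferase activity measured by SAMDI mass spectrometry after capture on biochip. Enzyme sat with compound 30 min at RT before acetyl-CoA and biotinylated H3 11-25 (K14R, K23R) peptide were added for 30 min at RT. Formic acid quench, bicarbonate neutralisation; IC50 values reported.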

EP300 (P300(1048-1664)) = biological target: T2, EP300 (P300(1048-1664)) (Homo sapiens, UniProt Q09472); experiment: Biochemical assay for EP300, SAMDI; conditions: read-out: EP300 Biochemistry IC50
T2 construct: P300(1048-1664)
T2 sequence (Q09472 1048-1664): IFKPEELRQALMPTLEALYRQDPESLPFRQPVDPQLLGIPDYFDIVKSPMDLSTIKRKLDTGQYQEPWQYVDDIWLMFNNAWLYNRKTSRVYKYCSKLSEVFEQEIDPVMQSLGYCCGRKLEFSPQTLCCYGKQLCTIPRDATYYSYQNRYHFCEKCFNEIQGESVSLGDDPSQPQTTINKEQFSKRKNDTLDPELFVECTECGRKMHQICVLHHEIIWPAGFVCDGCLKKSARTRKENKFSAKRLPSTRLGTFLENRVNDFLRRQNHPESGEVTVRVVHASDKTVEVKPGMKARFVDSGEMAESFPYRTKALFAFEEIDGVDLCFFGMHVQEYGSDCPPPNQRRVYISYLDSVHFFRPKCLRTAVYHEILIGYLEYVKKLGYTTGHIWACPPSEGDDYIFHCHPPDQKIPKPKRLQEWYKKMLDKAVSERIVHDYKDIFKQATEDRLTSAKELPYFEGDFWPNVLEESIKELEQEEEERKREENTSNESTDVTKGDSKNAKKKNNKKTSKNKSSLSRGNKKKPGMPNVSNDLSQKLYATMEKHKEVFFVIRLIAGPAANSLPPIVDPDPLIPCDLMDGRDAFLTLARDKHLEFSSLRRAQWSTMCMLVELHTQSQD
From the text: The following example describes materials and methods relating to a biochemical assay for EP300. IC50 values (micromolar (μM)) are summarized in Table 1, Table 2, and Table 3 under the column labeled: “EP300 Biochemistry IC50 (micromolar).”

[2] = Homo sapiens, 647-V, high throughput proliferation
[3] = 2 h, H3K18Ac in HB-CLS-2 cells, 2 hrs compound incubation
[4] = Homo sapiens, 647-V, 168 h, 647V cells, day 7, CellTiter-Glo
[5] = Peptide #233, Acetyl-CoA, SAMDI mass spectrometry
[6] = P300(1048-1664), Peptide #233, Ac-CoA, SAMDI mass spectrometry
[7] = H3K18Ac in-cell western, HB-CLS-2 cells
[8] = Homo sapiens, 647-V, high throughput proliferation, 647V cells

Row | IC50 ([1]; H3K18Ac in-cell western) | IC50 (CREBBP (1084-1701); SAMDI) | IC50 (EP300 (P300(1048-1664)); EP300, SAMDI) | Structure (SMILES) | IC50 (647V cells; [2]) | further results
1 | 0.114 µM | 0.0192 µM | 0.0113 µM | CCn1ncc(CN(C)C(=O)c2cc(-c3ccc(NCCS(C)(=O)=O)c(C)n3)nc3ccc(Cl)cc23)c1C [Compound 625] | 0.163 µM | –
2 | – | 5.7 µM | 2.7 µM | CCn1ncc(CN(C)C(=O)c2nc(-n3cc(CCN(C)C)cn3)nc3ccc(Cl)cc23)c1C [Compound 405] | – | IC50 [1, 7]: 1.6 µM; IC50 (647V cells; [8]): 1.7 µM
3 | 0.133 µM | 0.0254 µM | 0.01 µM | CCn1ncc(CN(C)C(=O)c2cc(-c3ccc(NC4CCNC4)c(C)n3)nc3ccc(Cl)cc23)c1C (stereo not shown) [Compound 472] | 0.048 µM | –
4 | 0.171 µM | 0.0324 µM | 0.0091 µM | CCn1ncc(CN(C)C(=O)c2cc(-c3ccc(NCC(F)(F)CNC)c(C)n3)nc3ccc(Cl)cc23)c1C [Compound 534] | 0.228 µM | –
5 | 1.7 µM | 2.1 µM | 1.5 µM | CCn1ncc(CN(C)C(=O)c2cc(-c3ccnc(N)c3)nc3ccc(Cl)cc23)c1C [Compound 94] | 1.5 µM | –
6 | 0.45 µM | 0.38 µM | 0.11 µM | CCn1ncc(CN(C)C(=O)c2cc(-c3cnc[nH]3)nc3ccc(Cl)cc23)c1C [Compound 48] | 0.77 µM | –
7 | 2.53 µM | 10.6 µM | 4.85 µM | CCn1ncc(CN(C)C(=O)c2cc(-c3ccc(N(C)C)nn3)nc3ccc(Cl)cc23)c1C [Compound 502] | 9.01 µM | –
8 | 1.06 µM | 0.0887 µM | 0.0886 µM | CCn1ncc(CN(C)C(=O)c2cc(-c3ccc(NC4CNCC4(F)F)c(C)n3)nc3ccc(Cl)cc23)c1C (stereo not shown) [Compound 538] | 1.73 µM | –
9 | 0.085 µM | 0.0596 µM | 0.0209 µM | CCn1ncc([C@@H](C)N(C)C(=O)c2cc(-c3ccc(NCCN(C)C)c(C)n3)nc3ccc(Cl)cc23)c1C [Compound 610] | 0.0377 µM | –
10 | – | 0.0025 µM | 0.023 µM | CCn1ncc(CN(C)C(=O)c2cc(-c3ccc(NC)c(C)n3)nc3ccc(Cl)cc23)c1C [Compound 404] | – | IC50 [1, 7]: 0.17 µM; IC50 (647V cells; [8]): 0.12 µM
11 | 2.33 µM | 4.52 µM | 3.28 µM | CCn1ncc(CN(C)C(=O)c2cc(-c3ccc(N(C)CCN)nn3)nc3ccc(Cl)cc23)c1C [Compound 505] | 5.96 µM | –
12 | 0.34 µM | 0.65 µM | 0.68 µM | CCn1ncc(CN(C)C(=O)c2nc(-c3ccc4[nH]c(C)nc4c3)nc3ccc(Cl)cc23)c1C [Compound 39] | 0.25 µM | –

More lines, now with the values behind:

Row | Structure (SMILES) | IC50 ([1]; H3K18Ac in-cell western) | IC50 (CREBBP (1084-1701); SAMDI) | IC50 (EP300 (P300(1048-1664)); EP300, SAMDI) | IC50 (647V cells; [2]) | further results
13 | CCc1ncc(CN(C)C(=O)c2cc(-c3ccc(NC4CN(C(C)=O)C4)c(C)n3)nc3ccc(Cl)cc23)n1C [Compound 549] | 0.24 µM | 0.0349 µM | 0.0124 µM | 0.15 µM | –
14 | Cc1nc(-c2cc(C(=O)N(C)Cc3cnc(C4CC4)n3C)c3cc(Cl)ccc3n2)ccc1NC1CCN(C)C1 (stereo not shown) [Compound 640] | – | – | – | – | IC50 [1, 3]: 0.135 µM; IC50 (647V cells; [4]): 0.0487 µM; IC50 (CREBBP (1084-1701); [5]): 0.0246 µM; IC50 (EP300 (P300(1048-1664)); [6]): 0.009 µM
15 | CCn1ncc([C@@H](C)N(C)C(=O)c2cc(-c3ccc(NCCNC)c(C)n3)nc3ccc(Cl)cc23)c1C [Compound 608] | 0.107 µM | 0.0928 µM | 0.0264 µM | 0.039 µM | –
16 | CCc1ncc(CN(C)C(=O)c2nc(-c3cc(Cl)cc(NCCNC)c3)nc3ccc(Cl)cc23)n1C [Compound 555] | 0.226 µM | 0.0228 µM | 0.0071 µM | 0.102 µM | –
17 | CCc1nc(-c2cc(C(=O)N(C)Cc3cnc(CC)n3C)c3cc(COC)ccc3n2)ccc1NCCN(C)C [Compound 580] | 0.176 µM | 0.0659 µM | 0.0439 µM | 0.13 µM | –
18 | CCn1ncc(CN(C)C(=O)c2nc(-c3ccc(OCCNC(=O)OC(C)(C)C)c(C)c3)nc3ccc(Cl)cc23)c1C [Compound 143] | 6.4 µM | 0.13 µM | 8.1 µM | – | IC50 (647V cells; high throughput proliferation): 4.3 µM
19 | CCn1ncc(CN(C)C(=O)c2nc(-c3cc(C(=O)NC4CCN(C)CC4)n(C)n3)nc3ccc(Cl)cc23)c1C [Compound 65] | 0.72 µM | 0.41 µM | 0.79 µM | 0.74 µM | –
20 | CCn1ncc(CN(C)C(=O)c2nc(-c3cc(C(=O)NCCCN4CCCC4)n(Cc4ccc(OC)cc4)n3)nc3ccc(Cl)cc23)c1C [Compound 163] | 12 µM | 62 µM | 35 µM | 2.7 µM | –
21 | CCn1ncc(CN(C)C(=O)c2nc(-c3cnnc(C(=O)NC)c3)nc3ccc(Cl)cc23)c1C [Compound 443] | 20 µM | ≥ 50 µM | ≥ 50 µM | 20 µM | –
22 | CCc1ncc(CN(C)C(=O)c2nc(-c3cc(N)c4cn[nH]c4c3)nc3ccc(COC)cc23)n1C [Compound 500] | 0.371 µM | 0.0253 µM | 0.0285 µM | 0.409 µM | –
23 | CCn1ncc(CN(C)C(=O)c2nc(-c3ccc(OCCNC)c(Cl)c3)nc3ccc(S(C)(=O)=O)cc23)c1C [Compound 453] | 4.83 µM | 3.91 µM | 2.36 µM | 1.2 µM | –
24 | CCn1ncc(CN(C)C(=O)c2nc(-c3cc(C#N)cc(NCCNC)c3)nc3ccc(Cl)cc23)c1C [Compound 9] | 0.09 µM | 0.015 µM | 0.011 µM | 0.051 µM | –
25 | CCn1ncc(CN(C)C(=O)c2nc(-c3cc(C)c(OCCCNC)c(NC)c3)nc3ccc(Cl)cc23)c1C [Compound 451] | 13 µM | 3.01 µM | 3.88 µM | 2.29 µM | –
26 | CCn1ncc(CN(C)C(=O)c2nc(-c3cc(C)nc(CNC)c3)nc3ccc(Cl)cc23)c1C [Compound 398] | – | 24 µM | 22 µM | – | IC50 [1, 7]: 8.2 µM; IC50 (647V cells; [8]): 4.8 µM
27 | CCn1ncc(CN(C)C(=O)c2nc(-c3cc(C)cc(NC4CCNC4)c3)cc3ccc(Cl)cc23)c1C (stereo not shown) [Compound 383] | – | 0.017 µM | 0.0051 µM | – | IC50 [1, 7]: 0.19 µM; IC50 (647V cells; high throughput proliferation, 647V cells): 0.063 µM
28 | CCn1ncc(CN(C)C(=O)c2nc(-c3cc(C)cc(NC4CNC(=O)C4)c3)nc3ccc(Cl)cc23)c1C (stereo not shown) [Compound 539] | 0.714 µM | 0.0304 µM | 0.0262 µM | 1.34 µM | –
29 | CC1CCCc2c(CN(C)C(=O)c3cc(-c4cccc(Cl)c4)nc4ccc(Cl)cc34)cnn21 (stereo not shown) [Compound 107] | 2.5 µM | 1.1 µM | 0.59 µM | 6.2 µM | –
30 | CCn1ncc(CN(C)C(=O)c2nc(-c3cc(C)nc(NCCNC)c3)nc3ccc(Cl)cc23)c1C [Compound 8] | 0.078 µM | 0.033 µM | 0.026 µM | 0.042 µM | –
31 | CCn1ncc(CN(C)C(=O)c2nc(-c3cc(C)c4c(c3)NCCN4)nc3ccc(Cl)cc23)c1C [Compound 458] | 1.05 µM | 1.43 µM | 1.46 µM | 0.523 µM | –
32 | CCn1ncc(CN(C)C(=O)c2nc(-c3cc4c(NC)[nH]nc4cc3C)nc3ccc(C)cc23)c1C [Compound 612] | 0.0463 µM | 0.018 µM | 0.0066 µM | 0.0409 µM | –
33 | CCn1ncc(CN(C)C(=O)c2nc(-c3cc(Cl)cc(NCCN(C)C(=O)OC(C)(C)C)c3)nc3ccc(Cl)cc23)c1C [Compound 121] | 3.5 µM | 0.41 µM | 0.86 µM | 3.8 µM | –
34 | CCn1ncc(CN(C)C(=O)c2nc(-c3cc(C(=O)NC)n(C)n3)nc3ccc(C4CC4)cc23)c1C [Compound 638] | – | – | – | – | IC50 [1, 3]: 0.124 µM; IC50 (647V cells; [4]): 0.357 µM; IC50 (CREBBP (1084-1701); [5]): 0.116 µM; IC50 (EP300 (P300(1048-1664)); [6]): 0.0662 µM
